Data from ChEMBL document CHEMBL1152349, “Optimization of 2-piperidin-4-yl-acetamides as melanin-concentrating hormone receptor 1 (MCH-R1) antagonists: Designing out hERG inhibition” (Bioorg Med Chem Lett, 2009).

Key:
[1] = target: Melanin-concentrating hormone receptor 2 (Homo sapiens, UniProt Q969V1); test: Displacement of [125I]MCH from human MCHR2 expressed in CHO cells; format: cell-based
[2] = target: Sodium channel protein type 5 subunit alpha (Homo sapiens, UniProt Q14524); test: Inhibition of NaV1.5 sodium channel expressed in CHO cells by patch clamp assay; format: cell-based
[3] = target: T1, Voltage-gated inwardly rectifying potassium channel KCNH2 (Homo sapiens, UniProt Q12809); test: Inhibition of human ERG expressed in CHO cells by patch clamp assay; format: cell-based
[4] = target: T2, Melanin-concentrating hormone receptor 1 (Homo sapiens, UniProt Q99705); test: Antagonist activity at human MCHR1 expressed in HEK293 cells assessed as [35S]GTPgammaS accumulation; format: functional, cell-based
[5] = tested on: Liver microsomes; test: Intrinsic clearance in human liver microsomes; format: ADME, Microsome
[6] = target: T2, Melanin-concentrating hormone receptor 1; test: Displacement of [125I]MCH from human MCHR1 expressed in HEK293 cells; format: cell-based
[7] = Dissociation constant, pKa by pressure assisted capillary electrophoresis; format: physicochemical
[8] = target: T1, Voltage-gated inwardly rectifying potassium channel KCNH2; test: Inhibition of human ERG activation expressed in CHO cells by rubidium efflux assay; format: cell-based
[9] = tested on: Mus musculus; test: Antiobesity activity in DIO mouse model assessed as reduction in weight at 50 umol/kg, po once daily after 21 days; format: functional; design: scale not given: the % may be the effect or the level left

T2 sequence (Q99705 whole entry): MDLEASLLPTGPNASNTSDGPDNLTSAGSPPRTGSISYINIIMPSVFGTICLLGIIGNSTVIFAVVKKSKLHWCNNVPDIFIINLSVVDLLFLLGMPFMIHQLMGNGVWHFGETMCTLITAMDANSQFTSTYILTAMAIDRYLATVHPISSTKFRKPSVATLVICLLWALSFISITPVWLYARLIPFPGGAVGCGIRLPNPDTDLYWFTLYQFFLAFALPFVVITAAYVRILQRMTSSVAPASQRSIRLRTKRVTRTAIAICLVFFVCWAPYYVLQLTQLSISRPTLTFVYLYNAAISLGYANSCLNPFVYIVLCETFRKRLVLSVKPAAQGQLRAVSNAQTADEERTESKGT
T1 sequence (Q12809 whole entry): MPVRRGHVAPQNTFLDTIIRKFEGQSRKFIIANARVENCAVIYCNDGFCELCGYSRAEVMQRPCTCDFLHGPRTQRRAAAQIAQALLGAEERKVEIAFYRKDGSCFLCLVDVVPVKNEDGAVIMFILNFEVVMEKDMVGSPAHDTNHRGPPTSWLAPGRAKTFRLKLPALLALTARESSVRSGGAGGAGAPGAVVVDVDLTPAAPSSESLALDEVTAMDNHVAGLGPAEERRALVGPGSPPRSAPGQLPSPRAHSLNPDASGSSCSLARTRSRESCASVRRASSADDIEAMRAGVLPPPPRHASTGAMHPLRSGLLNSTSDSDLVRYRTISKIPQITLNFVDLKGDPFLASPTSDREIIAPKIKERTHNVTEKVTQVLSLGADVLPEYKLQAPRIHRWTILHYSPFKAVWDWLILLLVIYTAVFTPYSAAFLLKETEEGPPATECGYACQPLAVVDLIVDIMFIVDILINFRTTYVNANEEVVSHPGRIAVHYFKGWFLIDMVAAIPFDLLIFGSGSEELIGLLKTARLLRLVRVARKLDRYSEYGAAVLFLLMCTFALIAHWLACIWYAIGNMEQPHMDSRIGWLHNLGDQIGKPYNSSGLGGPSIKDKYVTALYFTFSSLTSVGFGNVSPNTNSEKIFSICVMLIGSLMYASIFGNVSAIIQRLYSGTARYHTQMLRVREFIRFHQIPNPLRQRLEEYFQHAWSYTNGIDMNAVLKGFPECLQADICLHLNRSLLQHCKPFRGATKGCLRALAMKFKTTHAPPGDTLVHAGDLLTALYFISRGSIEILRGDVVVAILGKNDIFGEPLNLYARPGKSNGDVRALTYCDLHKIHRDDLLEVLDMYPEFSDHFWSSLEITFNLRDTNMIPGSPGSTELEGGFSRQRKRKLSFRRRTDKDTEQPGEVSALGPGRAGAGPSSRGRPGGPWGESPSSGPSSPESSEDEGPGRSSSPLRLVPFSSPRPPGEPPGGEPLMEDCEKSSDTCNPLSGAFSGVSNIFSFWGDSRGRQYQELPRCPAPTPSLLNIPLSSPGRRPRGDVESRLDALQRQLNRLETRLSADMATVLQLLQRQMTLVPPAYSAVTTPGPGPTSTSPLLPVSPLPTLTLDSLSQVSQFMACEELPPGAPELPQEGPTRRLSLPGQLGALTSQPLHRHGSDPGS
Chain of Melanin-concentrating hormone receptor 2 (Q969V1 whole entry): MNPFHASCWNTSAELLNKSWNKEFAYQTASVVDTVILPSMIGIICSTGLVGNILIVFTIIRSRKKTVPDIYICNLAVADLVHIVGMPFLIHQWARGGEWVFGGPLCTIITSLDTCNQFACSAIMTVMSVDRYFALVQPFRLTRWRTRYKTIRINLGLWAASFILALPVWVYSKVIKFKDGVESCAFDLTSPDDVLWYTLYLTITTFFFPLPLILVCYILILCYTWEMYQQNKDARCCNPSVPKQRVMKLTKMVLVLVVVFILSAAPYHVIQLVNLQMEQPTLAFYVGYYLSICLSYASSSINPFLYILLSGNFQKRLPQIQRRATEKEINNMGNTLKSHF
Chain of Sodium channel protein type 5 subunit alpha (Q14524 whole entry): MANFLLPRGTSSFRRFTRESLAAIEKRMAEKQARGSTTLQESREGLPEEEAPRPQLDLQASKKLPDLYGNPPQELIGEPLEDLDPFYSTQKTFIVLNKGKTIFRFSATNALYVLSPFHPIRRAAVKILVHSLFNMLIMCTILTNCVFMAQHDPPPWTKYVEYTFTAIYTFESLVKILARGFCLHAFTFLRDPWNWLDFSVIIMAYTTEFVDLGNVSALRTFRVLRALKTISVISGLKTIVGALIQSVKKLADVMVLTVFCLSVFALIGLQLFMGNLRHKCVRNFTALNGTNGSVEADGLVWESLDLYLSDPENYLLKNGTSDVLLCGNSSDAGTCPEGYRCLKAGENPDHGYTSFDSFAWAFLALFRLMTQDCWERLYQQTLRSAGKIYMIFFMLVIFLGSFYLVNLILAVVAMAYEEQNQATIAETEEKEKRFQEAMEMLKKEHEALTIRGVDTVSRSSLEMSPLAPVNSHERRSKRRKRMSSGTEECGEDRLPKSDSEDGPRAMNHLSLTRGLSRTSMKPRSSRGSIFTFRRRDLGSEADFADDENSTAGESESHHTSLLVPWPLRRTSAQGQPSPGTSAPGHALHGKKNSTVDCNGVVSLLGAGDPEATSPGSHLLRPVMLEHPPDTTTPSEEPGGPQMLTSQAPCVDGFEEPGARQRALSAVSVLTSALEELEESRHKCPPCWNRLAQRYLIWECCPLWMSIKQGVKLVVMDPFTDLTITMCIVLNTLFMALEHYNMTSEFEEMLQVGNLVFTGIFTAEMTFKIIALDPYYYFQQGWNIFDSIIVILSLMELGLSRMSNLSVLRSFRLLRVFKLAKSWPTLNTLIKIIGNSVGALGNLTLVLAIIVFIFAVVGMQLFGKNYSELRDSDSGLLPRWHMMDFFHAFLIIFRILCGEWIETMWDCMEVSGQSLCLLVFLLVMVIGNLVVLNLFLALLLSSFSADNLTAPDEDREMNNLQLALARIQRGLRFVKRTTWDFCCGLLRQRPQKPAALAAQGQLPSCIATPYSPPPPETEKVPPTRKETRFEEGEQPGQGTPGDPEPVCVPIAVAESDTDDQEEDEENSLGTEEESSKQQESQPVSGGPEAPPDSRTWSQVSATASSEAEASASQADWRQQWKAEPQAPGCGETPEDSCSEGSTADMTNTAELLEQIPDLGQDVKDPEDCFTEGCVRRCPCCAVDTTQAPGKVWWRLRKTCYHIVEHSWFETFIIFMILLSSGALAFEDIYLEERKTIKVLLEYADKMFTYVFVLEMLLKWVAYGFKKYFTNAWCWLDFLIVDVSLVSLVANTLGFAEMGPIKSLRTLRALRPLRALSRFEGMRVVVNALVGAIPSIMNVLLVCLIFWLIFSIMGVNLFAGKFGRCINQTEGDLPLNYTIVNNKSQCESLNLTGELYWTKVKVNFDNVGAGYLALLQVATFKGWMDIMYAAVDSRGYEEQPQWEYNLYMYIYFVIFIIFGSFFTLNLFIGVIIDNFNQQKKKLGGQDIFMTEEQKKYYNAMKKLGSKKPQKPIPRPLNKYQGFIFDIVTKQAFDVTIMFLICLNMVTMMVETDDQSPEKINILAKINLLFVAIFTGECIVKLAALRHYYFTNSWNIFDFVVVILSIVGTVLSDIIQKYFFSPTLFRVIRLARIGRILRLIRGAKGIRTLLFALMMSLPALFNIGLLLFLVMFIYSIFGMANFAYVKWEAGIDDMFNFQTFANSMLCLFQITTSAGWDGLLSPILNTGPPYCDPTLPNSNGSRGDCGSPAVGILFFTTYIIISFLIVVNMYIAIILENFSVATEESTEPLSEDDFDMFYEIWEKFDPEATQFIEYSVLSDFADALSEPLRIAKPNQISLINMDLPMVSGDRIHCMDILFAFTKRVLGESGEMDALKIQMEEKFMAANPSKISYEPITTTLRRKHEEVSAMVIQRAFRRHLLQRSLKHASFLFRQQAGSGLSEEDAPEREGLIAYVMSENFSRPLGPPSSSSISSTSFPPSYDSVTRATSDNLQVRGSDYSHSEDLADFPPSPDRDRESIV

SMILES	IC50 [6]	IC50 [3]	further results
O=C(NCc1ccc(O)cc1Cl)C1CCN(Cc2ccn(-c3ccc(C(F)(F)F)cc3)c2)CC1	30 nM		
O=C(NC1CCN(Cc2ccn(-c3ccc(C(F)(F)F)cc3)c2)CC1)NC(c1ccccc1)c1ccccc1	39 nM	3800 nM	pKa [7]: 9.2
O=C(NCC1(O)CCCCC1)C1CCN(Cc2ccn(-c3ccc(C(F)(F)F)cc3)c2)CC1	40 nM	11700 nM	
O=C(C1CCCCN1C(=O)CC1CCN(Cc2ccn(-c3ccc(C(F)(F)F)cc3)c2)CC1)N1CCCC1 (stereo not given)	66 nM		
O=C(NCc1ccc(Cl)cc1O)C1CCN(Cc2ccn(-c3ccc(C(F)(F)F)cc3)c2)CC1	22 nM	1550 nM	
O=C(CC1CCN(Cc2ccc(-c3ccc(Cl)cc3)o2)CC1)N1CCCC(CO)C1 (stereo not given)	597 nM	2340 nM	
Cn1cccc1CNC(=O)CC1CCN(Cc2ccn(-c3ccc(C(F)(F)F)cc3)c2)CC1	313 nM		
O=C(NCCc1ccccn1)C1CCN(Cc2ccn(-c3ccc(C(F)(F)F)cc3)c2)CC1	339 nM	10000 nM	
O=C(NCc1ccc(Cl)cc1Cl)C1CCN(Cc2ccn(-c3ccc(C(F)(F)F)cn3)c2)CC1	444 nM		pKa [7]: 8.3; IC50 [8]: 3500 nM
O=C(CN1CCN(Cc2ccn(-c3ccc(C(F)(F)F)cn3)c2)CC1)NC(c1ccc(F)cc1)c1ccc(F)cc1	55 nM	800 nM	pKa [7]: 6.5
O=C(CC1CCN(Cc2ccc(-c3ccc(Cl)cc3)o2)CC1)NCC(O)C(F)(F)F (stereo not given)	815 nM	1020 nM	
O=C(NCc1c(O)cc(Cl)cc1Cl)C1CCN(Cc2ccn(-c3ccc(C(F)(F)F)cc3)c2)CC1	144 nM		
O=C(CC1CCN(Cc2ccn(-c3ccc(C(F)(F)F)cc3)c2)CC1)NC(c1ccc(F)cc1)c1cccnc1 (stereo not given)	28 nM	2170 nM	
O=C(CC1CCN(Cc2ccn(-c3ccc(C(F)(F)F)cc3)c2)CC1)N1CCCC(C(=O)N2CCCC2)C1 (stereo not given)	71 nM	31000 nM	
CC(NC(=O)CC1CCN(Cc2ccn(-c3ccc(C(F)(F)F)cc3)c2)CC1)c1ccc(=O)[nH]c1 (stereo not given)	67 nM	> 31600 nM	
Cc1nccn1CC(NC(=O)CC1CCN(Cc2ccn(-c3ccc(C(F)(F)F)cc3)c2)CC1)c1ccccc1 (stereo not given)	65 nM	26600 nM	
CN(CCC(=O)N1CCCC1)C(=O)CC1CCN(Cc2ccn(-c3ccc(C(F)(F)F)cc3)c2)CC1	142 nM		
O=C(CC1CCN(Cc2ccn(-c3ccc(C(F)(F)F)cc3)c2)CC1)N1CCN(C(=O)N2CCCC2)CC1	417 nM	14000 nM	
O=C(CC1CCN(Cc2ccn(-c3ccc(C(F)(F)F)cc3)c2)CC1)N1CCOC(C(=O)N2CCCC2)C1 (stereo not given)	173 nM		
O=C(CC1CCN(Cc2ccn(-c3ccc(C(F)(F)F)cc3)c2)CC1)NC(c1ccccc1)c1ccccn1 (stereo not given)	41 nM	2300 nM	
CCN(CC)C(=O)C1CCCN(C(=O)CC2CCN(Cc3ccn(-c4ccc(C(F)(F)F)cc4)c3)CC2)C1 (stereo not given)	37 nM	16000 nM	
COCC(O)CN(Cc1ccc(F)cc1)C(=O)CC1CCN(Cc2ccc(-c3ccc(Cl)cc3)o2)CC1 (stereo not given)	150 nM	1090 nM	

These reach a lower IC50 [6]. Values come first.

IC50 [6]	SMILES	IC50 [3]	further results
21 nM	O=C(CC1CCN(Cc2ccn(-c3ccc(C(F)(F)F)cc3)c2)CC1)NC(c1ccc(F)cc1)c1ccc[n+]([O-])c1 (stereo not given)	> 31600 nM	
17 nM	O=C(CC1CCN(Cc2ccn(-c3ccc(C(F)(F)F)cc3)c2)CC1)NC(c1ccccc1)c1cnc[nH]1 (stereo not given)	11400 nM	
17 nM	O=C(CC1CCN(Cc2ccn(-c3ccc(C(F)(F)F)cc3)c2)CC1)NC(c1ccncc1)c1ccc(Cl)cc1 (stereo not given)		
13 nM	O=C(CC1CCN(Cc2ccn(-c3ccc(C(F)(F)F)cn3)c2)CC1)NC(c1ccc(F)cc1)c1ccc(F)cc1		pKa [7]: 9.1; IC50 [4]: 17 nM; Activity [9]: 18.2%
8 nM	O=C(NCc1ccc(Cl)cc1Cl)N1CCN(Cc2ccn(-c3ccc(C(F)(F)F)cc3)c2)CC1		pKa [7]: 6.2; IC50 [8]: 1600 nM
6 nM	O=C(CC1CCN(Cc2ccn(-c3ccc(C(F)(F)F)cc3)c2)CC1)NC(c1ccc(F)cc1)c1c[nH]c(=O)c(Cl)c1 (stereo not given)	> 31600 nM	IC50 [1]: 4600 nM; IC50 [2]: > 31600 nM; IC50 [4]: 21 nM; clearance [5]: < 15 µL/min/mg
5 nM	CCCCC(NC(=O)CC1CCN(Cc2ccn(-c3ccc(C(F)(F)F)cc3)c2)CC1)c1ccc(OC)nc1 (stereo not given)	1000 nM	
4 nM	O=C(CC1CCN(Cc2ccn(-c3ccc(C(F)(F)F)cc3)c2)CC1)N(CCCO)Cc1ccc(F)cc1	630 nM	
2 nM	COc1ccc(C(NC(=O)CC2CCN(Cc3ccn(-c4ccc(C(F)(F)F)cc4)c3)CC2)c2ccc(F)cc2)cn1 (stereo not given)	1750 nM	
2 nM	O=C(CC1CCN(Cc2ccn(-c3ccc(C(F)(F)F)cc3)c2)CC1)NC(c1ccc(F)cc1)c1ccc(=O)[nH]c1 (stereo not given)	> 31600 nM	IC50 [4]: 25 nM
1 nM	CCCCC(NC(=O)CC1CCN(Cc2ccn(-c3ccc(C(F)(F)F)cc3)c2)CC1)c1ccc(=O)[nH]c1 (stereo not given)		IC50 [4]: 19 nM
